# Assay results published in patent publication US8426434B2, “Crystalline form of 4-[[4-[[4-(2-Cyanoethenyl)-2,6-dimethylphenyl]-amino]-2-pyrimidinyl]amino]benzonitrile” (Tibotec Pharmaceuticals Ltd., priority 2007, dated 2013).
# Values joined by “and” are separate entries in the source; they are usually repeats but may differ in a detail not shown here. Equal values may be shown once. Read-outs that look alike come from different tables or passages of the source.
# Assays:
# [1] = Intrinsic dissolution (USP dissolution apparatus 2, tablet in PTFE holder, UV at 266 nm); type: physicochemical; conditions: for average intrinsic dissolution rate / slope, average: average of samples 1-6, 0.01N HCl/methanol 1:1, 37° C.; for average intrinsic dissolution rate / slope, average / slope / intrinsic dissolution rate (IDR): 150 rpm; for slope, average: 0 to 60 min; for slope / intrinsic dissolution rate (IDR): single samples, 500 ml 0.01N HCl/methanol 1:1, 37° C.; for slope: slope calculated from 0 to 60 min; for intrinsic dissolution rate (IDR): tablet surface 0.5026 cm^2
# Method: A Hanson Research SR6™ dissolution testing station equipped with a USP dissolution apparatus 2 as paddle and a poly(tetrafluoroethylene (PTFE) tablet holder was used. UV spectrometry was used to determine the concentration of TMC278 in solution. The UV analysis was carried out on an Agilent 8453™ spectrophotometer using a 2 ml cuvet. A single wavelength measurement at 266 nm was recorded with single component analysis (SCA), a single component measurement.
# About 125 mg of the compound was weighed into a mould with a diameter of 0.8 cm. A tablet was made with a Speca press imposing a pressure of 1 ton for tabletting. The surface area of the tablet was 0.5026 cm^2. The tablet was adhered to the PTFE tablet holder.
# 21.8 mg of TMC278 was weighed into a volumetric flask of 25 ml. The product was dissolved in a 1:1.5 tetrahydrofuran/methanol mixture. A 1 ml aliquot was transferred into a 200 ml volumetric flask and diluted to the mark using 0.01N HCl. The concentration of the reference solution was […].
# The tablet holders with the tablets were placed in a USP2 dissolution bath. The vessels contained 500 ml 0.01N HCl/methanol 1:1 and were thermostatically controlled at 37° C. The paddles were used with a rotation speed of 150 rpm (rounds per minute). A sample was withdrawn each 10 minutes and the concentration was determined with UV spectrometry. The slope was calculated on the measuring points between 0 and 60 minutes. The slope was expressed as mg %/minute. The intrinsic dissolution rate (IDR), expressed as mg/(cm^2×min), was calculated.
# [2] = Solubility in buffer pH4, buffer pH2 and 0.01N HCl; type: physicochemical
# wild type HIV = conditions: in words; described in WO 03/16306; cited from earlier work
# [3] = system: drug and multidrug resistant HIV strains; conditions: in words; strains resistant to NNRTIs such as efavirenz, nevirapine, delavirdine; cited from earlier work
SMILES,average intrinsic dissolution rate [1],"slope, average [1] [mg %/minute]",average intrinsic dissolution rate ([1]; listed as polymorph II),slope [1],intrinsic dissolution rate (IDR) [1],"Solubility ([2]; 0.01N HCl, pH 2.1) [mg/100 ml]","Solubility ([2]; Buffer pH4, pH 4.0) [mg/100 ml]","solubility in water ([2]; water, in words)",activity against wild type HIV (wild type HIV),activity against drug and multidrug resistant HIV strains [3],"intrinsic dissolution rates, compared to Polymorph II ([1]; in words)","Solubility ([2]; buffer pH2, pH 2.1, aqueous buffer, Buffer pH2, pH 2.1, read-out: Solubility) [µg/mL]","solubility at lower pH, compared to Polymorph II ([2]; lower pH, in words)"
"Cc1cc(/C=C/C#N)cc(C)c1Nc1ccnc(Nc2ccc(C#N)cc2)n1 [TMC278 polymorph II, 4-[[4-[[4-(2-cyanoethenyl)-2,6-dimethylphenyl]-amino]-2-pyrimidinyl]-amino-]-benzonitrile, reference compound]",0.2886 mg/(cm^2 × min),0.0290,0.2886 mg/(cm^2 × min),0.0283 mg %/minute and 0.0281 mg %/minute and 0.0290 mg %/minute and 0.0305 mg %/minute and 0.0288 mg %/minute and 0.0294 mg %/minute,0.2819 mg/(cm^2 × min) and 0.2795 mg/(cm^2 × min) and 0.2886 mg/(cm^2 × min) and 0.3035 mg/(cm^2 × min) and 0.2861 mg/(cm^2 × min) and 0.2921 mg/(cm^2 × min),1.9,0.03,–,–,–,–,–,–
"Cc1cc(/C=C/C#N)cc(C)c1Nc1ccnc(Nc2ccc(C#N)cc2)n1 [TMC278, 4-[[4-[[4-(2-cyanoethenyl)-2,6-dimethylphenyl]-amino]-2-pyrimidinyl]-amino-]-benzonitrile]",–,–,–,–,–,–,–,relatively low solubility in water,pronounced activity,shows activity,–,–,–
"Cc1cc(/C=C/C#N)cc(C)c1Nc1ccnc(Nc2ccc(C#N)cc2)n1 [TMC278 polymorph I, (E) 4-[[4-[[4-(2-cyanoethenyl)-2,6-dimethylphenyl]amino]-2-pyrimidinyl]amino]benzonitrile]",0.3362 mg/(cm^2 × min),0.0338,–,0.0358 mg %/minute and 0.0353 mg %/minute and 0.0309 mg %/minute and 0.0347 mg %/minute and 0.0343 mg %/minute and 0.0319 mg %/minute,0.3559 mg/(cm^2 × min) and 0.3508 mg/(cm^2 × min) and 0.3074 mg/(cm^2 × min) and 0.3447 mg/(cm^2 × min) and 0.3417 mg/(cm^2 × min) and 0.3169 mg/(cm^2 × min),4.1,0.07,–,–,–,increased intrinsic dissolution rates,6.4,increased solubility at lower pH
